Reference: patent publication US7517998B2, “Non nucleoside reverse transcriptase inhibitors” (priority 2004, dated 2009)
pIC50: −log10 of the molar value.

target: T1, K103NNY181C mutant reverse transcriptase (Human immunodeficiency virus type 1 group M subtype B, UniProt P04585, K690N/Y768C); assay: Reverse transcriptase enzymatic assay (PicoGreen), K103N/Y181C mutant RT; format: biochemical, HIV-1; settings: IC50 mut (nM), mutant (K103N/Y181C) reverse transcriptase, enzymatic assay of Example 24
T1 construct: mutations that occur in the reverse transcriptase segment of the pol gene
Method in brief: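 HIV-1 RT (2.5 nM final) pre-incubated 15 min at room temperature with inhibitor, then reacted 50 min at 37 °C with poly rC 45 nM, dG15 4.5 nM, dGTP 3.6 μM in Tris/HCl pH 7.8, 1% DMSO. Final inhibitor 10 μM to 0.508 nM; EDTA-quenched, PicoGreen fluorescence read at 485/520 nm.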

Point of comparison: `CC(C)(C)c1ccc(-n2nnnc2SCC(=O)Nc2ccc(NC(=O)Nc3ccc(C(=O)O)cc3)cc2Cl)c(Cl)c1` [Compound 7009], IC50 43 nM. Against it:
- CC(C)(C)c1ccc(-n2nnnc2SCC(=O)Nc2ccc(NC(=O)Cc3cccc4occc34)cc2Cl)c(Cl)c1 [Compound 7034] — 4.7-fold higher, 201 nM
- CC(C)(C)c1ccc(-n2nnnc2SCC(=O)Nc2ccc(NC(=O)c3ccc(O)cc3)cc2Cl)c(Cl)c1 [Compound 7011] — 4.2-fold higher, 181 nM
- CC(C)(C)c1ccc(-n2nnnc2SCC(=O)Nc2ccc(NC(=O)Cc3ccc[n+]([O-])c3)cc2Cl)c(Cl)c1 [Compound 7048] — 2.3-fold higher, 97 nM

same assay, conditions: IC50 mut, K103N/Y181C mutant reverse transcriptase, enzymatic assay of Example 24

Point of comparison: `CC(C)(C#Cc1ccc(NC(=O)CSc2nnnn2-c2cc(C(F)(F)F)ccc2Cl)c(Cl)c1)OCCN1CCCC1` [Compound 4142], pIC50 7.30. Against it:
- CN(C)C(=O)COC(C)(C)C#Cc1ccc(NC(=O)CSc2nnnn2-c2ccc(C(C)(C)C)cc2Cl)c(Cl)c1 [Compound 4049] — 0.22 log units higher, 7.52
- CC(C)(C#Cc1ccc(NC(=O)CSc2nnnn2-c2cc(C(F)(F)F)cc(C3CC3)c2Cl)c(Cl)c1)OCCN1CCNCC1 [Compound 4235] — 1.16 log units lower, 6.14
- CC(C)(C#Cc1ccc(NC(=O)CSc2nnnn2-c2cc(Br)ccc2Cl)c(Cl)c1)C(=O)O [Compound 4218] — 0.20 log units higher, 7.50
- Cc1cc(Cl)c(-n2nnnc2SCC(=O)Nc2ccc(C#CC(C)(C)O)cc2Cl)cc1C(F)(F)F [Compound 4060] — within 0.2 log units, 7.38
- CCNC(=O)NC(C)(C)C#Cc1ccc(NC(=O)CSc2nnnn2-c2ccc(C3CC3)cc2Cl)c(Cl)c1 [Compound 4075] — 0.39 log units higher, 7.69
- CN1CCN(CCOC(C)(C)C#Cc2ccc(NC(=O)CSc3nnnn3-c3ccc(C4CC4)cc3Cl)c(Cl)c2)CC1 [Compound 4105] — within 0.2 log units, 7.18
- Cc1cc(C(F)(F)F)cc(-n2nnnc2SCC(=O)Nc2ccc(C#CC(C)(C)O)cc2Cl)c1Cl [Compound 4030] — 0.38 log units higher, 7.68
- CC(C)(C#Cc1ccc(NC(=O)CSc2nnnn2-c2ccc(C3CC3)cc2Cl)c(Cl)c1)C(=O)NCCCN1CCCC1=O [Compound 4152] — within 0.2 log units, 7.44
- CC(C)(C#Cc1ccc(NC(=O)CSc2nnnn2-c2ccc(C3CC3)cc2Cl)c(Cl)c1)NC(=O)OC(C)(C)C [Compound 4069] — 0.35 log units lower, 6.95
- CC(C)(C#Cc1ccc(NC(=O)CSc2nnnn2-c2ccccc2Cl)c(Cl)c1)C(=O)O [Compound 4207] — 0.95 log units lower, 6.35
- CC(C)(N)C#Cc1ccc(NC(=O)CSc2nnnn2-c2cc(C(C)(C)C)cc(Br)c2Cl)c(Cl)c1 [Compound 4221] — 0.33 log units lower, 6.97
- CC(C)(N)C#Cc1ccc(NC(=O)CSc2nnnn2-c2cc(C(F)(F)F)ccc2Cl)c(Cl)c1 [Compound 4137] — 0.24 log units lower, 7.06
- Cc1ccc(-n2nnnc2SCC(=O)Nc2ccc(C#CC(C)(C)O)cc2Cl)c(Cl)c1C(F)(F)F [Compound 4059] — 1.12 log units lower, 6.18
- CC(C)(C#Cc1ccc(NC(=O)CSc2nnnn2-c2ccc(C3CC3)cc2Cl)c(Cl)c1)OCCNC1CCC1 [Compound 4118] — 0.25 log units lower, 7.05
- CC(C)(C#Cc1ccc(NC(=O)CSc2nnnn2-c2cc(C(F)(F)F)ccc2Cl)c(Cl)c1F)C(=O)O [Compound 4101] — within 0.2 log units, 7.24
- CC(C)(C#Cc1ccc(NC(=O)CSc2nnnn2-c2ccc(C3CC3)cc2Cl)c(Cl)c1F)NC(=O)CN1CCNCC1 [Compound 4198] — 0.36 log units higher, 7.66
- CC(C)(C#Cc1ccc(NC(=O)CSc2nnnn2-c2ccc(C(C)(C)C)cc2Cl)c(Cl)c1)OCC(=O)NNC(N)=O [Compound 4056] — 0.29 log units higher, 7.59
- CC(C)(C#Cc1ccc(NC(=O)CSc2nnnn2-c2cc(C(F)(F)F)ccc2Cl)c(Cl)c1)NC(=O)C1CC1 [Compound 4140] — within 0.2 log units, 7.29
- CC(C)(C#Cc1ccc(NC(=O)CSc2nnnn2-c2ccc(C(C)(C)C)cc2Cl)c(Cl)c1)CO [Compound 4016] — within 0.2 log units, 7.46
- CC(C)(C#Cc1ccc(NC(=O)CSc2nnnn2-c2ccc(C3CC3)cc2Cl)c(Cl)c1)C(=O)N1CCC(C(=O)O)CC1 [Compound 4149] — 0.48 log units higher, 7.78
- CC(C)(C#Cc1ccc(NC(=O)CSc2nnnn2-c2ccc(C3CC3)cc2Cl)c(Cl)c1)NC(=O)CN1CCC(O)CC1 [Compound 4125] — 0.29 log units higher, 7.59
- CC(C)(C#Cc1ccc(NC(=O)CSc2nnnn2-c2ccc(C3CC3)cc2Cl)c(Cl)c1)NCC1CC1 [Compound 4128] — 0.27 log units higher, 7.57
- CC(C)(C#Cc1ccc(NC(=O)CSc2nnnn2-c2ccc(C(C)(C)C)cc2Cl)c(Cl)c1)OCC(=O)Nc1cccc(C(=O)O)c1 [Compound 4025] — within 0.2 log units, 7.36
- CN(C)CCCC(=O)NC(C)(C)C#Cc1ccc(NC(=O)CSc2nnnn2-c2ccc(C3CC3)cc2Cl)c(Cl)c1F [Compound 4156] — within 0.2 log units, 7.44
- CC(C)(C#Cc1ccc(NC(=O)CSc2nnnn2-c2ccc(C3CC3)cc2Cl)c(Cl)c1F)OCCN1CCCC1 [Compound 4175] — within 0.2 log units, 7.17
- O=C(CSc1nnnn1-c1ccc(C2CC2)cc1Cl)Nc1ccc(C#CCCN2CCNCC2)cc1Cl [Compound 4135] — 0.24 log units higher, 7.54
- CC(C)(C#Cc1ccc(NC(=O)CSc2nnnn2-c2ccc(C3CC3)cc2Cl)c(Cl)c1)NC(=O)c1cc[n+]([O-])cc1 [Compound 4086] — 0.62 log units higher, 7.92
- CC(C)(C#Cc1ccc(NC(=O)CSc2nnnn2-c2ccc(C(C)(C)C)cc2Cl)c(Cl)c1)OCC(=O)NCC(=O)O [Compound 4052] — 0.22 log units higher, 7.52
- Cc1cc(C(F)(F)F)cc(-n2nnnc2SCC(=O)Nc2ccc(C#CC(C)(C)C(=O)O)cc2Cl)c1Cl [Compound 4058] — within 0.2 log units, 7.20
- CC(C)(O)C#Cc1ccc(NC(=O)CSc2nnnn2-c2cc(C#N)ccc2Cl)c(Cl)c1 [Compound 4021] — 0.86 log units lower, 6.44
- CN(C)c1ccc(CNC(=O)C(C)(C)C#Cc2ccc(NC(=O)CSc3nnnn3-c3ccc(C4CC4)cc3Cl)c(Cl)c2)cc1 [Compound 4153] — 0.40 log units lower, 6.90
- CC(C)(C#Cc1ccc(NC(=O)CSc2nnnn2-c2ccc(C(C)(C)C)cc2Cl)c(Cl)c1)OCC(=O)Nc1ccc(/C=C/C(=O)O)cc1 [Compound 4026] — within 0.2 log units, 7.20

same assay, conditions: IC50 mut, mutant reverse transcriptase, enzymatic assay of Example 24

Point of comparison: `CC(C)(C)c1ccc(-n2nnnc2SCC(=O)Nc2ccc(-c3ccc(C(=O)O)s3)cc2Cl)c(Cl)c1` [Compound 3030], pIC50 7.55. Against it:
- O=C(CSc1nnnn1-c1ccc(C2CC2)cc1Cl)Nc1ccc(C(=O)NCc2cc[n+]([O-])cc2)cc1Cl [Compound 6034] — 0.20 log units lower, 7.35
- Cc1ccc(-c2c(OCC(=O)Nc3ccc(C#CC(C)(C)O)cc3Cl)n[nH]c2C)c(Cl)c1 [Compound 1016] — 0.23 log units lower, 7.32
- CC(C)(C)c1ccc(-n2nnnc2SCC(=O)Nc2ccc(C(=O)Nc3ccc(CC(=O)O)cc3)cc2Cl)c(Cl)c1 [Compound 6001] — 0.39 log units lower, 7.16
- CC(C)(C)c1ccc(-n2nnnc2SCC(=O)Nc2ccc(OCC(=O)NCc3ccc(C(=O)O)cc3)cc2Cl)c(Cl)c1 [Compound 5027] — 0.26 log units lower, 7.29
- CC(C)(COc1ccc(NC(=O)CSc2nnnn2-c2ccc(C3CC3)cc2Cl)c(Cl)c1)C(=O)O [Compound 3046] — 0.57 log units lower, 6.98
- O=C(COc1ccc(NC(=O)CSc2nnnn2-c2ccc(C3CC3)cc2Cl)c(Cl)c1)NCCc1ccncc1 [Compound 5036] — 0.98 log units lower, 6.57
- O=C(CSc1nnnn1-c1ccc(C2CC2)cc1Cl)Nc1ccc(C(=O)NCc2cccc[n+]2[O-])cc1Cl [Compound 6038] — 0.36 log units lower, 7.19
- CC(C)(C)c1ccc(-n2nnnc2SCC(=O)Nc2ccc(OCC(=O)Nc3ccccc3O)cc2Cl)c(Cl)c1 [Compound 5009] — 0.67 log units lower, 6.88
- CN1CCN(C(=O)c2ccc(NC(=O)CSc3nnnn3-c3ccc(C(C)(C)C)cc3Cl)c(Cl)c2)CC1 [Compound 6004] — 1.15 log units lower, 6.40
- CC(C)(C)c1ccc(-n2nnnc2SCC(=O)Nc2ccc(C(=O)N3CCC(C(=O)O)CC3)cc2Cl)c(Cl)c1 [Compound 6030] — 1.51 log units lower, 6.04
- CC(C)(C)c1ccc(-n2nnnc2SCC(=O)Nc2ccc(C(=O)NC(CO)C(=O)O)cc2Cl)c(Cl)c1 (stereo not shown) [Compound 6018] — the same, 7.55
- CC(C)(C)c1ccc(-n2nnnc2SCC(=O)Nc2ccc(OCC(=O)NC3CCN(Cc4ccccc4)CC3)cc2Cl)c(Cl)c1 [Compound 5008] — 1.49 log units lower, 6.06
- O=C(COc1ccc(NC(=O)CSc2nnnn2-c2ccc(C3CC3)cc2Cl)c(Cl)c1)NCCc1cccnc1 [Compound 5035] — 0.96 log units lower, 6.59
- CC(C)(C)c1ccc(-n2nnnc2SCC(=O)Nc2ccc(C(=O)NCc3ccc(O)c(O)c3)cc2Cl)c(Cl)c1 [Compound 6019] — within 0.2 log units, 7.44
- Cc1ccc(-n2nncc2SCC(=O)Nc2ccc(-c3ccc(CC(=O)O)cc3)cc2Cl)c(Cl)c1 [Compound 1005] — 1.41 log units lower, 6.14
- O=C(CSc1nnnn1-c1ccc(C2CC2)cc1Cl)Nc1ccc(C(=O)NS(=O)(=O)c2ccccc2)cc1Cl [Compound 6037] — 0.60 log units lower, 6.95
- O=C(CSc1nnnn1-c1ccc(C2CC2)cc1Cl)Nc1ccc(-c2ccc(OCCN3CCCCC3)c(Cl)c2)cc1Cl [Compound 3038] — 0.77 log units lower, 6.78
- CC(C)(C)c1ccc(-n2nnnc2SCC(=O)Nc2ccc(C(=O)NCc3cccnc3)cc2Cl)c(Cl)c1 [Compound 6008] — within 0.2 log units, 7.59
- COC(=O)Cc1cccc(-c2ccc(NC(=O)CSc3nnnn3-c3ccc(C)cc3Cl)c(Cl)c2)c1 [Compound 3002] — 0.63 log units lower, 6.92
- CC(C)(C)c1ccc(-n2nnnc2SCC(=O)Nc2ccc(OCC(=O)NCc3ccco3)cc2Cl)c(Cl)c1 [Compound 5002] — 0.69 log units lower, 6.86
- CCNC(=O)c1ccc(NC(=O)CSc2nnnn2-c2ccc(C)cc2Cl)c(Cl)c1 [Compound 3008] — 1.03 log units lower, 6.52
- Cc1cc(NC(=O)COc2ccc(NC(=O)CSc3nnnn3-c3ccc(C(C)(C)C)cc3Cl)c(Cl)c2)no1 [Compound 5001] — 0.40 log units lower, 7.15
- CC(C)(C(=O)O)c1ccc(-c2ccc(NC(=O)CSc3nnnn3-c3ccc(C4CC4)cc3Cl)c(Cl)c2)cc1 [Compound 2052] — within 0.2 log units, 7.72
- CC(C)(C)c1ccc(-n2nnnc2SCC(=O)Nc2ccc(C(=O)NCCN3CCOCC3)cc2Cl)c(Cl)c1 [Compound 6028] — 0.29 log units lower, 7.26
- CC(C)(C)c1ccc(-n2nnnc2SCC(=O)Nc2ccc(OCC(=O)NN3CCOCC3)cc2Cl)c(Cl)c1 [Compound 5006] — 1.12 log units lower, 6.43
- CC(C)(C)c1ccc(-n2nnnc2SCC(=O)Nc2ccc(C(=O)NCc3ccc(N)cc3)cc2Cl)c(Cl)c1 [Compound 6026] — 0.26 log units lower, 7.29
